Reference: the supplement of paper PMC10307832

Assays:
Experiment in all cases: relative viability (nuclei count vs DMSO), 5 days (fraction); higher = more cells survive
Sorafenib = compound: CNC(=O)c1cc(Oc2ccc(NC(=O)Nc3ccc(Cl)c(C(F)(F)F)c3)cc2)ccn1 [Sorafenib]
Method in brief: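 Viability here means nuclei in treated wells divided by nuclei in vehicle wells, reported as the median across plates. Only plates with control CV below 25% and at least one doubling passed. Lung cancer cell lines in 1536-well plates were exposed to five √10-spaced library-drug doses for 5 days and counted from 4× Hoechst images in MetaXpress.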

Sorafenib + Olaparib = compound: CNC(=O)c1cc(Oc2ccc(NC(=O)Nc3ccc(Cl)c(C(F)(F)F)c3)cc2)ccn1 [Sorafenib] + O=C(c1cc(Cc2n[nH]c(=O)c3ccccc23)ccc1F)N1CCN(C(=O)C2CC2)CC1 [Olaparib] (partner 8 µM)
Method in brief: (§1)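 Lung cancer cell lines in 1536-well plates were dosed by pin tool the day after seeding, either with one drug alone or with a fixed anchor-drug dose plus five library-drug doses (not always all listed) in √10 steps. After 5 days, cells were fixed and their nuclei stained in one step (final 0.05% Triton X-100, 1% formaldehyde, 1 ug/ml Hoechst), then counted on 4× images. Relative viability is the nuclei count in treated wells divided by that in vehicle wells. Values are medians of duplicate plates.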

Sorafenib + Trametinib = compound: CNC(=O)c1cc(Oc2ccc(NC(=O)Nc3ccc(Cl)c(C(F)(F)F)c3)cc2)ccn1 [Sorafenib] + CC(=O)Nc1cccc(-n2c(=O)n(C3CC3)c(=O)c3c(Nc4ccc(I)cc4F)n(C)c(=O)c(C)c32)c1 [Trametinib] (partner 0.02 µM)
Method in brief: as §1

Sorafenib + Vorinostat = compound: CNC(=O)c1cc(Oc2ccc(NC(=O)Nc3ccc(Cl)c(C(F)(F)F)c3)cc2)ccn1 [Sorafenib] + O=C(CCCCCCC(=O)Nc1ccccc1)NO [Vorinostat] (partner 1 µM)
Method in brief: as §1

Sorafenib + Pemetrexed = compound: CNC(=O)c1cc(Oc2ccc(NC(=O)Nc3ccc(Cl)c(C(F)(F)F)c3)cc2)ccn1 [Sorafenib] + Nc1nc2[nH]cc(CCc3ccc(C(=O)N[C@@H](CCC(=O)O)C(=O)O)cc3)c2c(=O)[nH]1 [Pemetrexed] (partner 0.2 µM)
Method in brief: as §1

Sorafenib + OSI-027 = compound: CNC(=O)c1cc(Oc2ccc(NC(=O)Nc3ccc(Cl)c(C(F)(F)F)c3)cc2)ccn1 [Sorafenib] + COc1cccc2cc(-c3nc([C@H]4CC[C@H](C(=O)O)CC4)n4ncnc(N)c34)[nH]c12 [OSI-027] (partner 0.5 µM)
Method in brief: as §1

Sorafenib + Tozasertib = compound: CNC(=O)c1cc(Oc2ccc(NC(=O)Nc3ccc(Cl)c(C(F)(F)F)c3)cc2)ccn1 [Sorafenib] + Cc1cc(Nc2cc(N3CCN(C)CC3)nc(Sc3ccc(NC(=O)C4CC4)cc3)n2)n[nH]1 [Tozasertib] (partner 0.1 µM)
Method in brief: as §1

Sorafenib + Palbociclib = compound: CNC(=O)c1cc(Oc2ccc(NC(=O)Nc3ccc(Cl)c(C(F)(F)F)c3)cc2)ccn1 [Sorafenib] + CC(=O)c1c(C)c2cnc(Nc3ccc(N4CCNCC4)cn3)nc2n(C2CCCC2)c1=O [Palbociclib] (partner 0.5 µM)
Method in brief: as §1

Sorafenib + Decitabine = compound: CNC(=O)c1cc(Oc2ccc(NC(=O)Nc3ccc(Cl)c(C(F)(F)F)c3)cc2)ccn1 [Sorafenib] + Nc1ncn([C@H]2C[C@H](O)[C@@H](CO)O2)c(=O)n1 [Decitabine] (partner 2 µM)
Method in brief: as §1

Sorafenib + AZD7762 = compound: CNC(=O)c1cc(Oc2ccc(NC(=O)Nc3ccc(Cl)c(C(F)(F)F)c3)cc2)ccn1 [Sorafenib] + NC(=O)Nc1cc(-c2cccc(F)c2)sc1C(=O)N[C@H]1CCCNC1 [AZD7762] (partner 0.2 µM)
Method in brief: as §1

Sorafenib + Foretinib = compound: CNC(=O)c1cc(Oc2ccc(NC(=O)Nc3ccc(Cl)c(C(F)(F)F)c3)cc2)ccn1 [Sorafenib] + COc1cc2c(Oc3ccc(NC(=O)C4(C(=O)Nc5ccc(F)cc5)CC4)cc3F)ccnc2cc1OCCCN1CCOCC1 [Foretinib] (partner 0.25 µM)
Method in brief: as §1

Sorafenib + Phenformin = compound: CNC(=O)c1cc(Oc2ccc(NC(=O)Nc3ccc(Cl)c(C(F)(F)F)c3)cc2)ccn1 [Sorafenib] + N=C(N)NC(=N)NCCc1ccccc1 [Phenformin] (partner 250 µM)
Method in brief: as §1

Sorafenib + Luminespib = compound: CNC(=O)c1cc(Oc2ccc(NC(=O)Nc3ccc(Cl)c(C(F)(F)F)c3)cc2)ccn1 [Sorafenib] + CCNC(=O)c1noc(-c2cc(C(C)C)c(O)cc2O)c1-c1ccc(CN2CCOCC2)cc1 [Luminespib] (partner 0.01 µM)
Method in brief: as §1

Sorafenib + Dasatinib = compound: CNC(=O)c1cc(Oc2ccc(NC(=O)Nc3ccc(Cl)c(C(F)(F)F)c3)cc2)ccn1 [Sorafenib] + Cc1nc(Nc2ncc(C(=O)Nc3c(C)cccc3Cl)s2)cc(N2CCN(CCO)CC2)n1 [Dasatinib] (partner 0.075 µM)
Method in brief: as §1

NCI-H1648
relative viability (Sorafenib; 0.08 µM): 0.921 | relative viability (Sorafenib; 0.253 µM): 0.53 | relative viability (Sorafenib; 2.53 µM): 0.925 | relative viability (Sorafenib; 8 µM): 0.726 | relative viability (Sorafenib + Olaparib; first compound 0.08 µM): 0.787 | relative viability (Sorafenib + Olaparib; first compound 2.53 µM): 0.76 | relative viability (Sorafenib + Olaparib; first compound 8 µM): 0.721 | relative viability (Sorafenib + Trametinib; first compound 0.08 µM): 0.468 | relative viability (Sorafenib + Trametinib; first compound 2.53 µM): 0.454 | relative viability (Sorafenib + Trametinib; first compound 8 µM): 0.258 | relative viability (Sorafenib + Vorinostat; first compound 0.08 µM): 0.404 | relative viability (Sorafenib + Vorinostat; first compound 2.53 µM): 0.482 | relative viability (Sorafenib + Vorinostat; first compound 8 µM): 0.321 | relative viability (Sorafenib + Pemetrexed; first compound 0.08 µM): 0.771 | relative viability (Sorafenib + Pemetrexed; first compound 2.53 µM): 0.708 | relative viability (Sorafenib + Pemetrexed; first compound 8 µM): 0.731 | relative viability (Sorafenib + OSI-027; first compound 0.08 µM): 0.235 | relative viability (Sorafenib + OSI-027; first compound 0.253 µM): 0.264 | relative viability (Sorafenib + OSI-027; first compound 2.53 µM): 0.247 | relative viability (Sorafenib + OSI-027; first compound 8 µM): 0.247 | relative viability (Sorafenib + Tozasertib; first compound 0.08 µM): 0.566 | relative viability (Sorafenib + Tozasertib; first compound 0.253 µM): 0.4 | relative viability (Sorafenib + Tozasertib; first compound 2.53 µM): 0.282 | relative viability (Sorafenib + Tozasertib; first compound 8 µM): 0.405 | relative viability (Sorafenib + Palbociclib; first compound 0.08 µM): 0.307 | relative viability (Sorafenib + Palbociclib; first compound 2.53 µM): 0.249 | relative viability (Sorafenib + Palbociclib; first compound 8 µM): 0.231 | relative viability (Sorafenib + Decitabine; first compound 0.08 µM): 0.521 | relative viability (Sorafenib + Decitabine; first compound 2.53 µM): 0.682 | relative viability (Sorafenib + Decitabine; first compound 8 µM): 0.409 | relative viability (Sorafenib + AZD7762; first compound 0.08 µM): 0.704 | relative viability (Sorafenib + AZD7762; first compound 2.53 µM): 0.74 | relative viability (Sorafenib + AZD7762; first compound 8 µM): 0.498

SW 900
relative viability (Sorafenib; 0.08 µM): 0.996 | relative viability (Sorafenib; 0.253 µM): 0.781 | relative viability (Sorafenib; 2.53 µM): 1.13 | relative viability (Sorafenib; 8 µM): 0.865 | relative viability (Sorafenib + Olaparib; first compound 0.08 µM): 0.764 | relative viability (Sorafenib + Olaparib; first compound 0.253 µM): 0.88 | relative viability (Sorafenib + Olaparib; first compound 2.53 µM): 0.909 | relative viability (Sorafenib + Olaparib; first compound 8 µM): 0.34 | relative viability (Sorafenib + Foretinib; first compound 0.08 µM): 1.2 | relative viability (Sorafenib + Foretinib; first compound 0.253 µM): 0.888 | relative viability (Sorafenib + Foretinib; first compound 2.53 µM): 0.782 | relative viability (Sorafenib + Foretinib; first compound 8 µM): 0.604 | relative viability (Sorafenib + Phenformin; first compound 0.08 µM): 0.871 | relative viability (Sorafenib + Phenformin; first compound 0.253 µM): 0.602 | relative viability (Sorafenib + Phenformin; first compound 2.53 µM): 0.461 | relative viability (Sorafenib + Phenformin; first compound 8 µM): 0.22 | relative viability (Sorafenib + Trametinib; first compound 0.253 µM): 0.792 | relative viability (Sorafenib + Trametinib; first compound 2.53 µM): 0.934 | relative viability (Sorafenib + Trametinib; first compound 8 µM): 0.719 | relative viability (Sorafenib + Luminespib; first compound 0.08 µM): 0.147 | relative viability (Sorafenib + Luminespib; first compound 0.253 µM): 0.16 | relative viability (Sorafenib + Luminespib; first compound 2.53 µM): 0.171 | relative viability (Sorafenib + Luminespib; first compound 8 µM): 0.165 | relative viability (Sorafenib + Vorinostat; first compound 0.08 µM): 0.71 | relative viability (Sorafenib + Vorinostat; first compound 0.253 µM): 0.398 | relative viability (Sorafenib + Vorinostat; first compound 2.53 µM): 0.72 | relative viability (Sorafenib + Vorinostat; first compound 8 µM): 0.618 | relative viability (Sorafenib + Pemetrexed; first compound 0.08 µM): 0.462 | relative viability (Sorafenib + Pemetrexed; first compound 0.253 µM): 0.479 | relative viability (Sorafenib + Pemetrexed; first compound 2.53 µM): 0.517 | relative viability (Sorafenib + Pemetrexed; first compound 8 µM): 0.471 | relative viability (Sorafenib + OSI-027; first compound 0.08 µM): 0.842 | relative viability (Sorafenib + OSI-027; first compound 0.253 µM): 0.427 | relative viability (Sorafenib + OSI-027; first compound 2.53 µM): 0.579 | relative viability (Sorafenib + OSI-027; first compound 8 µM): 0.49 | relative viability (Sorafenib + Dasatinib; first compound 0.08 µM): 0.544 | relative viability (Sorafenib + Dasatinib; first compound 0.253 µM): 0.481 | relative viability (Sorafenib + Dasatinib; first compound 2.53 µM): 0.545 | relative viability (Sorafenib + Dasatinib; first compound 8 µM): 0.343 | relative viability (Sorafenib + Tozasertib; first compound 0.08 µM): 0.718 | relative viability (Sorafenib + Tozasertib; first compound 0.253 µM): 0.467 | relative viability (Sorafenib + Tozasertib; first compound 2.53 µM): 0.402 | relative viability (Sorafenib + Tozasertib; first compound 8 µM): 0.316 | relative viability (Sorafenib + Palbociclib; first compound 0.08 µM): 0.566 | relative viability (Sorafenib + Palbociclib; first compound 0.253 µM): 0.568 | relative viability (Sorafenib + Palbociclib; first compound 2.53 µM): 0.498 | relative viability (Sorafenib + Palbociclib; first compound 8 µM): 0.63 | relative viability (Sorafenib + Decitabine; first compound 0.08 µM): 0.397 | relative viability (Sorafenib + Decitabine; first compound 0.253 µM): 0.56 | relative viability (Sorafenib + Decitabine; first compound 2.53 µM): 0.418 | relative viability (Sorafenib + Decitabine; first compound 8 µM): 0.475 | relative viability (Sorafenib + AZD7762; first compound 0.08 µM): 0.675 | relative viability (Sorafenib + AZD7762; first compound 0.253 µM): 0.571 | relative viability (Sorafenib + AZD7762; first compound 2.53 µM): 0.571 | relative viability (Sorafenib + AZD7762; first compound 8 µM): 0.377
